Test results: patent US8492429B2, “Combination of IAP inhibitors and FLT3 inhibitors” (Novartis AG, priority 2006, dated 2013)

Test system: Ba/F3-FLT3-ITD cells
Test: Proliferation of cells cultured in the presence and absence of WEHI (IL-3)
Type: cell-based, murine
Conditions: WEHI as source of IL-3

With `CNC(C)C(=O)NC(C(=O)N1CCC2CCN(CCc3ccccc3)CC21)C1CCCCC1` (stereo not shown) [LBW242] the “Inhibition of cellular proliferation in the presence and absence of IL-3” value was “inhibits proliferation of Ba/F3-FLT3-ITD cells in both the absence, as well as the presence of IL-3”.
